The assay relates to bFGF-stimulated corneal angiogenesis. The assay is described as follows: rabbit corneal micropocket model, single intravitreal injection. The class given is in vivo. The conditions noted are these: single (day 0) intravitreal, 100 μL, drug = 2 mg/eye; for inhibition [%] of neovascularisation area: vs saline control. Here is the method: (1996). In this model angiogenesis is stimulated by implantation of Hydron pellets containing an angiogenesis stimulating cytokine like, for example, fibroblast growth factor (FGF) or vascular endothelial growth factor (VEGF) into the cornea. After implantation the active compound to be tested is administered by paralimbal intravitreal injection. Effect on neovascularisation is measured after predetermined time intervals by visual examination using a microscope, photographing and computer-assisted quantification of photographs.
The effect of intravitreal application of an αvβ3 and/or αvβ5 inhibitor was examined in rabbit corneal micropocket model as described by Shaffer R. W. (see above). As an example for an αvβ3 and/or αvβ5 inhibitor 2-(2,2-dimethylpropyloxycarboxamido)-3{3,4-dihydro-2-[N-(2-imidazoly)-carbamoylethyl]-2H-1,4-benzoxazin-3-on-6-yl}propionic acid was used in the experiment. For induction of angiogenesis Hydron pellets containing basic fibroblast growth factor (bFGF) were used. Preparation of bFGF containing implants was performed by casting Hydron [poly(hydroxyethyl)methacrylate] in specially prepared Teflon pegs that have a 2.5 mm core drilled into their surfaces. Approximately 12 μl of casting material was placed into each peg and polymerized overnight in a sterile hood, then sterilized by ultraviolet irradiation.
The experiment consisted of 10 animals; in each eye of the animals one individual pellet was implanted into a surgically created “pocket” in the mid stroma of the rabbit cornea. The surgical procedure was done under sterile technique using a Moeller-Wedel Microflex operating microscope (Haag-Streit Company, Germany) equipped with a beamsplitter and camera for photographically recording individual comeas. A 69 Beaver blade was used to create a 3 mm by 5 mm “pocket” to a depth of half the comeal thickness. The stroma was dissected peripherally using an spatula and the pellet implanted with its peripheral margin 2 mm from limbus. […] For comparison the same procedure was performed in the other 5 animals using saline only. Following implantation the eyes Were photographed and the area of neovascularisation measured after predetermined intervals.

This note sets out measurements from US7645736B2, “Integrin inhibitors for the treatment of eye diseases” (Merck Patent GmbH, priority 2004, dated 2010).

Each structure is given as a SMILES string.

Take `CC(C)(C)COC(=O)NC(Cc1ccc2c(c1)NC(=O)C(CCC(=O)Nc1ncc[nH]1)O2)C(=O)O` (centres unmarked) [Drug, 2-(2,2-dimethylpropyloxycarboxamido)-3-{3,4-dihydro-2-[N-(2-imidazolyl)-carbamoylethyl]-2H-1,4-benzoxazin-3-on-6-yl}propionic acid]: the “mean area [mm^2] of neovascularisation” value by setting is: (5 days post implantation) 1.71 mm^2; (7 days post implantation) 4.65 mm^2; (10 days post implantation) 5.10 mm^2; (14 days post implantation) 9.94 mm^2. Moreover, the “inhibition [%] of neovascularisation area” value was determined as 56.3% (5 days post implantation), 13.4% (7 days post implantation), 45.8% (10 days post implantation) and 40.0% (14 days post implantation).
